Tested on: B-lymphocytes
Experiment: B-cell progenitor production by co-culture on OP9 stromal cells
Type: cell-based, human
Method: Co-Culture Systems Involving DLL4 Stromal or OP9 Stromal Cells for Production of B-Cell Progenitors
Co-culture systems generally used alpha-MEM medium supplemented with 10˜20% fetal calf serum (FCS), Penicillin Streptomycin, L-glutamine and 2-Mercaptoethanol (0.1 mM).
Stromal cells were seeded into an appropriate number of wells of a multi-well plate and allowed to grow until they reached confluency.
At around day 15, cells were transferred onto confluent layers of OP9 or OP9-DLL4 stromal cells and cultured in the following conditions:
Medium: alpha-MEM medium supplemented with 5˜10% FCS, penicillin streptomycin, L-glutamine and 2-mercaptoethanol (0.1 mM)
Cytokines: SCF (50 ng/mL) and DAPT (10 uM).
Media was changed every 4˜5 days.
Every 7˜10 days, the culture was passaged onto new wells coated with fresh layers of stromal cells.
As an alternative to using OP9 stromal cells expressing DLL4 (DLL4-0P9) for B-cell progenitor production according to Example 1, which requires addition of a NOTCH1 inhibitor such as DAPT to the culture medium to permit B-cell development, OP9 stromal cells (without DLL4) can also be used (FIG. 20). This system generates a larger number of B-cell progenitors (FIG. 20B), a small fraction of which (˜1%) are IgM^+ (FIG. 20B). This frequency of IgM^+ cells is similar to that seen with cord blood CD34^+ cells cultured in similar systems.

C[C@H](NC(=O)Cc1cc(F)cc(F)c1)C(=O)N[C@H](C(=O)OC(C)(C)C)c1ccccc1 [DAPT, N—[N-(3,5-difluorophenacetyl)-L-alanyl]-S-phenylglycine t-butyl ester]
effect of presence of DAPT on development of B-lymphocytes (OP9 stromal cell co-culture, SCF (50 ng/mL) and DAPT (10 uM), from around day 15): enhances the development of B-lymphocytes
effect of addition of DAPT on B-cell progenitor generation (OP9 stromal cells (without DLL4), FIG. 20): further enhanced

— US20200399390A1, “METHODS FOR PRODUCING LYMPHOCYTE PROGENITORS” (MURDOCH CHILDRENS RESEARCH INSTITUTE, priority 2017, published 2020)
